From patent publication US8436011B2, “Pyridinopyridinone derivatives, preparation thereof and therapeutic use thereof” (Sanofi, priority 2008, dated 2013)
Where two headings read alike, the source gives them in different places.

What was measured:
[1] = biological target: T1, fusion protein Tel/PDGF-Rβ (BaF3 Tel/PDGF cells) (Homo sapiens, UniProt P09619); assay: Inhibition of PDGF-Rβ tyrosine kinase activity: proliferation of BaF3 Tel/PDGF cells (CellTiter-Glo, 72 h); format: cell-based, murine; details: 72 hours incubation, read-out: IC50 (concentration that inhibits 50% of the proliferation of the BaF3 Tel/PDGF cells)
T1 construct: the transmembrane and intracellular part of the PDGF-Rβ receptor; N-terminal part of the Tel transcription factor (ETV6); expressed in transfected cells; host or cells: murine haematopoietic cell line BaF/3; the other entry of the earlier key: ETV6 (P41212, Transcription factor ETV6)
T1 sequence (P09619 with tags, fused parts or gaps): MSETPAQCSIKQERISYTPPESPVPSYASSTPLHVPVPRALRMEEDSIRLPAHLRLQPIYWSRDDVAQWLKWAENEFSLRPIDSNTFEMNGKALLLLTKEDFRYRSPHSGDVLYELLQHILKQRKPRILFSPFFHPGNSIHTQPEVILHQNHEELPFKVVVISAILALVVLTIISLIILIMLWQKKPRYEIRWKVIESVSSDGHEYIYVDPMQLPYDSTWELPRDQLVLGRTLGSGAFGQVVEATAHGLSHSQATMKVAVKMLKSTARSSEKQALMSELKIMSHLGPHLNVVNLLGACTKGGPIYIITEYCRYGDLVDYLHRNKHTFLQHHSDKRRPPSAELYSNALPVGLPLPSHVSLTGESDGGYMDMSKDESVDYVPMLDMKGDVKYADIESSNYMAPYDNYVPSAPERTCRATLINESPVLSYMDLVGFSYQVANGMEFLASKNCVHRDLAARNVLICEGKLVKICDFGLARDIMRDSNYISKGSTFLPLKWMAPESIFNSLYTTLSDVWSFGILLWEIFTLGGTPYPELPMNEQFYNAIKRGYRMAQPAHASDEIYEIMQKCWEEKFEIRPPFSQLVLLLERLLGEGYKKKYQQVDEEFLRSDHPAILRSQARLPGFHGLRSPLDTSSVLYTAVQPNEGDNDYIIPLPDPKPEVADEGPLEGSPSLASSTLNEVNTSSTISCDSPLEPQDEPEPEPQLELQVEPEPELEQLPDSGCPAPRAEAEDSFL

[2] = biological target: T2, fusion protein Tel/PDGF-R (PDGF-Rβ kinase domain) in HEK cells (Homo sapiens, UniProt P09619); assay: Ex vivo activity: plasma of orally treated mice tested on PDGF-R autophosphorylation in HEK Tel/PDGF-R cells (ELISA); parameters: species or system female Balb/c mice; details: HEK293, mouse, po, 30 mg/kg po, read-out: % inhibition of autophosphorylation of PDGFR tyrosine kinase in HEK cells
T2 construct: the transmembrane and intracellular part of the PDGF-Rβ receptor; N-terminal part of the Tel transcription factor (ETV6); expressed in transfected cells; host or cells: HEK cells (transient transfection); the other entry of the earlier key: ETV6 (P41212, Transcription factor ETV6)
T2 sequence (P09619 with tags, fused parts or gaps): as above
Experimental: Ex vivo activity of the compounds of the invention was measured. These compounds are thus administered orally to female Balb/c mice at a dose of 10, 30 or 100 mg/kg in suspension or in solution in a vehicle such as methylcellulose/Tween and the inhibition of the tyrosine kinase activity is measured in vitro in a cell test, using plasma collected at 15 minutes, 1 hour and 4 hours.
1) Protocol for Administration of the Products to the Mice
The products are prepared in a mortar with 0.5% Tween 80 and 0.6% methylcellulose qs final volume. Depending on the case, preparations of different vehicles may be used: water, mixture of labrasol solutol 5% glucose-water. The suspended or dissolved products are administered by gavage (10 ml/kg) to female Balb/c mice 8 to 15 weeks old.
The animals are then collected at the time given by the protocol (15 min, 1 hour, 4 hours, 16 hours).
The animals are anaesthetized by intraperitoneal injection (10 ml/kg) of a ketamine (0.1 g/kg)-xylazine (20 mg/kg) mixture. […] The blood sample is collected from the vein or the artery using a dry syringe and needle. The blood is immediately transferred into heparin lithium tubes (BD microtainer). Centrifugation for 3 minutes at 12 000 rpm allows recovery of the plasma, on which the biochemical test may be performed after storage by freezing at −20° C.
2) Preparation of the HEK Tel/PDGF-R Cells and Measurement of the Phosphorylation of PDGF-R
In order to detect the ex vivo activity of the products using the mouse plasmas, the HEK cells are transiently transfected beforehand with an expression vector coding for the fusion protein Tel/PDGF-R (fusion protein described previously). After 24 hours of transfection, the cells are deprived of serum overnight and then incubated for 30 minutes with the animal plasmas treated with the products of the invention. The cells are then lysed in RIPA buffer, and detection of the phosphorylation of PDGF-Rβ is then performed via the ELISA technique, using a commercial kit (R&D Systems, DYC1767). The results are expressed as a percentage of inhibition of the autophosphorylation.
In this test of measurement of the ex vivo activity, the effect of the compounds of the invention is quantified by the percentage of inhibition of phosphorylation of the kinase domain of the PDGF-Rβ receptor in HEK cells, induced by the inhibitory activity of the product present in the plasma of the treated animals, as described in the following table: […]

IC50 [1] | inhibition at 30 mg/kg ([2]; plasma collected at 15 min) | inhibition at 30 mg/kg ([2]; plasma collected at 1 h) | inhibition at 30 mg/kg ([2]; plasma collected at 4 h) | SMILES
4.7 nM | 80% | 82% | 75% | CCn1c(N)c(C(=O)NC)c(=O)c2ccc(-c3ccc(CC(=O)NCC4COCCN4C4CC4)cc3)nc21 (centres unmarked) [compound 33, 2-amino-7-[4-(2-{[(4-cyclopropylmorpholin-3-yl)methyl]amino}-2-oxoethyl)phenyl]-1-ethyl-N-methyl-4-oxo-1,4-dihydro-1,8-naphthyridine-3-carboxamide]
2 nM | 85% | 57% | 74% | CCN1CC(F)(F)C[C@H]1CNC(=O)Cc1ccc(-c2ccc3c(=O)c(C(=O)NC)c(N)n(CC)c3n2)cc1 [compound 24, 2-amino-1-ethyl-7-{4-[2-({[(2S)-1-ethyl-4,4-difluoropyrrolidin-2-yl]methyl}-amino)-2-oxoethyl]phenyl}-N-methyl-4-oxo-1,4-dihydro-1,8-naphthyridine-3-carboxamide]
